Data taken from patent publication US20250339551A1, “AN ANTIBODY-DRUG CONJUGATE HAVING TWO OR MORE DIFFERENT FUNCTIONAL SMALL MOLECULES FOR ENHANCED TREATMENT OF REFRACTORY DISEASES” (HANGZHOU SEEHE BIOTECHNOLOGY CO., LTD, priority 2023, published 2025).

How the values were obtained:
C4-2B cell line = format: cell-based; details: 120 hours incubation, MTT, n = DAR given with each label
Excerpt: The cell lines used in the cytotoxicity assays were: C4-2B Cells which was obtained from ATCC through license agreement with MD Anderson Cancer Center, Houston, TX, USA. 22RV1, A549, U87, NCI-N87, MKN-7, BxPC-3, JIMT-1, MDA-MB-231, SU86.86, SW1990, OVCAR-3, Calu-3, A431, AsPC-1, CFPAC-1, DMS53, HCC827 and NCI-H1975 cells were purchased from ATCC, Nanjing Cobioer and The Cell Bank of Shanghai Institute of Biochemistry and Cell Biology, and the others. C4-2B and PC-3-4H7 are both Steap1 and PSMA antigen high express cells, but medium expressed of both B7H3 and DLL3 antigens. 22RV1 is low express cells for Steap1, PSMA, B7H3 and DLL3 antigens. U87 is glioblastoma (GBM) cells, NCI-N87 and MKN-7 cell line are stable models of the gastric epithelium. A431 is human epidermoid carcinoma. JIM-1 is trastuzumab-resistant Her2 breast tumor cells. SU86.86, SW1990, CFPAC-1 and AsPC-1 are pancreatic cancer cell lines. OVCAR-3 is ovarian cancer cell lines. Calu-3, HCC827 and NCI-H1975 are a human lung adenocarcinoma. All these cells were grown according to the provider manuals. To run the assay, the cells (180 μl, 6000 cells) were added to each well in a 96-well plate and incubated for 24 hours at 37° C. with 5% CO2. Next, the cells were treated with test compounds (20 μl) at various concentrations in appropriate cell culture medium (total volume, 0.2 mL). The control wells contain cells and the medium but lack the test compounds. The plates were incubated for 120 hours at 37° C. with 5% CO2. MTT (5 mg/mL) was then added to the wells (20 μl) and the plates were incubated for 1.5 hr at 37° C. The medium was carefully removed and DMSO (180 μl) was added afterward. After it was shaken for 15 min, the absorbance was measured at 490 nm and 570 nm with a reference filter of 620 nm. The inhibition % was calculated according to the following equation: […]

[1] = test system: GUCY2C-9C9 colon cancer cells; assay: in vivo activity of anti GUCY2C ADCs (FIG. 15); details: anti GUCY2C antibody drug conjugates, DAR=4.0˜4.2, one time administration, 3.0 mg/Kg, over 20 days, compared with anti GUCY2C antibody-GGFG-Dxd
C4-2B cells = assay: affinities against C4-2B cells (FIG. 7); format: binding; details: C4-2B cells highly express both Steap1 and PSMA antigens
PC-3-4B9 cells = assay: affinities against PC-3-4B9 cells (FIG. 8); format: binding; details: PC-3-4B9 only express highly PSMA antigens
PC-3 cells = assay: affinities against nature PC-3 cells (FIG. 10); format: binding; details: PC-3 cells do not have either Steap1 or PSMA antigens
PC-3-4G5 cells = assay: affinities against PC-3-4G5 cells (FIG. 9); format: binding; details: PC-3-4G5 only express highly Steap1 antigens
Excerpt: Since PC-3-4G5 only express highly Steap1 antigens, thus both prepared vandortuzumab and the vandortuzumab-C002 had the good affinity for PC-3-4G5 cells.

Q: Which IC50 (C4-2B cell line) does the source give for `CCc1c2c(nc3cc(F)c(NC(=O)CNC(=O)[C@H](C)NC(=O)[C@@H](NC(=O)[C@H](CCC(=O)NCCOCCOCCNC(=O)c4ccc(C(=O)NCCCCC(=O)NCCCC[C@H](NC(=O)N[C@@H](CCC(=O)O)C(=O)O)C(=O)O)cc4)NC(=O)CCCN4C(=O)CC(S)C4=O)C(C)C)cc13)-c1cc3c(c(=O)n1C2)COC(=O)[C@]3(O)CC` (stereo partly drawn) [C040] here?
A: The IC50 was 4.27 nM.

Q: Which IC50 (C4-2B cell line) does the source give for `CC[C@@]1(O)C(=O)OCc2c1cc1n(c2=O)Cc2c-1nc1cc(F)c(C)c3c1c2[C@@H](NC(=O)OCC[N+](C)(C)Cc1ccc(NC(=O)[C@H](C)NC(=O)[C@@H](NC(=O)[C@H](CCC(=O)NCCOCCOCCNC(=O)c2ccc(C(=O)NCCCCC(=O)NCCCC[C@H](NC(=O)N[C@@H](CCC(=O)O)C(=O)O)C(=O)O)cc2)NC(=O)CCCN2C(=O)CC(S)C2=O)C(C)C)cc1)CC3` (stereo partly drawn) [C044] here?
A: Its IC50 is 7.87 nM.

Q: For `CC[C@@]1(O)C(=O)OCc2c1cc1n(c2=O)Cc2c-1nc1cc(F)c(C)c3c1c2[C@@H](NC(=O)OCC[N+](C)(C)Cc1ccc(NC(=O)[C@H](C)NC(=O)[C@@H](NC(=O)[C@H](CCC(=O)N(CCNC(=O)CCOCCOCCNC(=O)c2ccc(C(=O)NCCCCC(=O)NCCCC[C@H](NC(=O)N[C@@H](CCC(=O)O)C(=O)O)C(=O)O)cc2)CCNC(=O)CCOCCOCCNC(=O)c2ccc(C(=O)NCCCCC(=O)NCCCC[C@H](NC(=O)N[C@@H](CCC(=O)O)C(=O)O)C(=O)O)cc2)NC(=O)CCCN2C(=O)CC(S)C2=O)C(C)C)cc1)CC3` (stereo partly drawn) [C045], which IC50 (C4-2B cell line) is on record?
A: Its IC50 is 6.76 nM.

Q: Which IC50 (C4-2B cell line) does the source give for `CC[C@@]1(O)C(=O)OCc2c1cc1n(c2=O)Cc2c-1nc1cc(F)c(C)c3c1c2[C@@H](NC(=O)[C@H](C)NC(=O)[C@@H](NC(=O)[C@H](CCC(=O)NCCOCCOCCNC(=O)c1ccc(C(=O)NCCCCC(=O)NCCCC[C@H](NC(=O)N[C@@H](CCC(=O)O)C(=O)O)C(=O)O)cc1)NC(=O)C1CCN(C(=O)CS)CC1)C(C)C)CC3` [C060] here?
A: The IC50 was 7.57 nM.

Q: With `CC[C@@]1(O)C(=O)OCc2c1cc1n(c2=O)Cc2c-1nc1cc(F)c(C)c3c1c2[C@@H](NC(=O)OCc1ccc(NC(=O)[C@H](C)NC(=O)[C@@H](NC(=O)[C@H](CCC(=O)N[C@H](C(=O)N[C@@H](C)C(=O)NC(=O)[C@H](CCC(=O)NC(c2ccccc2)(c2ccccc2)c2ccccc2)NC(=O)[C@@H]2CCCN2C(=O)[C@@H]2CCCN2C(=O)[C@H](CCCNC(=N)NC(c2ccccc2)(c2ccccc2)c2ccccc2)NC(=O)[C@H](CCCNC(=N)NC(c2ccccc2)(c2ccccc2)c2ccccc2)NC(=O)[C@H](CCCNC(=N)NC(c2ccccc2)(c2ccccc2)c2ccccc2)NC(=O)[C@H](CCC(=O)NC(c2ccccc2)(c2ccccc2)c2ccccc2)NC(=O)[C@H](CCCNC(=N)NC(c2ccccc2)(c2ccccc2)c2ccccc2)NC(=O)[C@H](CCCNC(=N)NC(c2ccccc2)(c2ccccc2)c2ccccc2)NC(=O)[C@H](CCCCNC(=O)OC(C)(C)C)NC(=O)[C@H](CCCCNC(=O)OC(C)(C)C)NC(=O)[C@H](CCCNC(=N)NC(c2ccccc2)(c2ccccc2)c2ccccc2)NC(=O)CNC(=O)OCC2c4ccccc4-c4ccccc42)C(C)C)NC(=O)CCCNC(=O)[C@H](CCCCNC(=O)COCCOCCOCCOCCOCCOCCOCCOCCOCCOC)NC(=O)CCCN2C(=O)C=CC2=O)C(C)C)cc1C(=O)NCCOCCOCCOCCOCCOCCOCCOCCOC)CC3` [compound 570] as the molecule, how does the “in vivo antitumor activity over time” value [1] read?
A: Its value is “better antitumor activity than the regular GGFG-Dxd conjugate”.

B1: vandortuzumab-C002 (conjugate, chains of the INN, looked up)
VH: EVQLVESGGGLVQPGGSLRLSCAVSGYSITSDYAWNWVRQAPGKGLEWVGYISNSGSTSYNPSLKSRFTISRDTSKNTLYLQMNSLRAEDTAVYYCARERNYDYDDYYYAMDYWGQGTLVTVSS
VL: DIQMTQSPSSLSASVGDRVTITCKSSQSLLYRSNQKNYLAWYQQKPGKAPKLLIYWASTRESGVPSRFSGSGSGTDFTLTISSLQPEDFATYYCQQYYNYPRTFGQGTKVEIK
modifications: drug conjugate C002
Q: For B1, which “affinity against C4-2B cells” value (C4-2B cells) is on record?
A: Its value is “better affinity for the C4-2B cells than the naked (unconjugated) antibodies”.

Q: And the “affinity against PC-3-4B9 cells” value (PC-3-4B9 cells)?
A: Its value is “had the affinity”.

Q: And the “affinity against nature PC-3 cells” value (PC-3 cells)?
A: Its value is “not able to show the affinity at all”.

Q: And the “affinity against PC-3-4G5 cells” value (PC-3-4G5 cells)?
A: The value was “good affinity”.
